17 molecules from patent US20250312499A1, “KISSPEPTIN RECEPTOR (KISS1R) TARGETED THERAPEUTICS AND USES THEREOF” (priority 2024, published 2025) can be followed below.

What is called Ki is the equilibrium dissociation constant of an inhibitor or competing ligand from its target.

The test addresses human kisspeptin receptor (Homo sapiens (Human), UniProt Q969F8). The experiment in a line: Human KISS1R binding assay (membrane competition binding). In short, it runs like this: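 Membranes from tetracycline-induced (48 h) Flp-In T-Rex 293 cells expressing receptor, 5–10 μg, incubated 90 min at room temperature with 0.2 nM [125I]-metastin (45-54) and competitor (typically 0–10,000 nM) in Tris/Mg/Ca/EGTA/0.1% BSA, pH 7.4. Filtration, washing, counting; Ki by non-linear regression.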

Setting [1] is: 90 min at room temperature, competition with 0.2 nM [125I]-metastin (45-54), Flp-In T-Rex 293 kisspeptin membranes, metal complexes nonradioactive Ga, In, Lu, read-out: hKiSSR Binding Ki (90 min).

The structures appear in SMILES notation. Where two headings read alike, the source gives them in different places. Numbered stars: 1 amine (or outer) side, 2 acyl side, 3 side chain; on linkers, the order of the positions; unused ones are H or OH. Square brackets hold non-standard residues; d marks the D form. Peptide text beside a SMILES is read from it. * marks the point of attachment. DOTA(Lu) = O=C1CN2CCN3CCN(CC(=O)*)CCN(CC2)CC(=O)[O][Lu]([O]1)[O]C(=O)C3; DOTA = O=C(O)CN1CCN(CC(=O)O)CCN(CC(=O)*)CCN(CC(=O)O)CC1; Gly(N-(3-F-4-Me-benzyl)) = Cc1ccc(CNCC(=O)*)cc1F; X11 = O=C(c1ccc(-c2ccccc2)c(OCCN[*:1])c1)[*:2]; Butanoyl(4-(4-MePh)) = Cc1ccc(CCCC(=O)*)cc1; Api(1-amidino) = N=C(N)N1CCC(N)(C(=O)O)CC1; Hydrocinnamoyl(4-Me) = Cc1ccc(CCC(=O)*)cc1; 2Nal = N[C@@H](Cc1ccc2ccccc2c1)C(=O)O; d2Nal = N[C@H](Cc1ccc2ccccc2c1)C(=O)O; X1 = O=C(CN1CCC(N[*:1])CC1)[*:2]; dCya = N[C@H](CS(=O)(=O)O)C(=O)O; 4Pal = N[C@@H](Cc1ccncc1)C(=O)O; d4Pal = N[C@H](Cc1ccncc1)C(=O)O; 2Thi = N[C@@H](Cc1cccs1)C(=O)O; Cha = N[C@@H](CC1CCCCC1)C(=O)O; Api = NC1(C(=O)O)CCNCC1; PEG2 = NCCOCCOCCC(=O)O; Ahx = NCCCCCC(=O)O; azaGly = NNC(=O)O

Sequence of human kisspeptin receptor (Q969F8 whole entry): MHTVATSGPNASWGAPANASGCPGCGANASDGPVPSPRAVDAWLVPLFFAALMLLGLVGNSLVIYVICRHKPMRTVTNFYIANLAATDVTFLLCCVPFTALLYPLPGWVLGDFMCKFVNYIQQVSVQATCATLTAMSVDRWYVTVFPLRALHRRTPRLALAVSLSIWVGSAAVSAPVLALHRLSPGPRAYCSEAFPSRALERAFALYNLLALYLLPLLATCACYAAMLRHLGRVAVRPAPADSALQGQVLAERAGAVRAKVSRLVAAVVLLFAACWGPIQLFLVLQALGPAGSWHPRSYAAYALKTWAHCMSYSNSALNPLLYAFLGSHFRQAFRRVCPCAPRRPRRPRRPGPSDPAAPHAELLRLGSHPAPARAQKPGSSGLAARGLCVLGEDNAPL

On to `Cc1ccc(CNCC(=O)N2CCC(NC(=O)[C@H](CC(C)C)NC(=O)NNC(=O)[C@H](Cc3ccccc3)NC(=O)[C@@H](NC(=O)[C@H](CC(N)=O)NC(=O)[C@@H](Cc3c[nH]c4ccccc34)NC(=O)CCCCCNC(=O)CN3CCN(CC(=O)O)CCN(CC(=O)O)CCN(CC(=O)O)CC3)[C@@H](C)O)(C(=O)N[C@@H](Cc3ccncc3)C(N)=O)CC2)cc1F` [Compound 290] ({DOTA-Ahx}-[dW]NTF[azaGly]L[Api](Gly(N-(3-F-4-Me-benzyl)))[4Pal]-NH2), for which the Ki under setting [1] is < 0.01 µM. Consider `CC(=O)N[C@H](Cc1ccc(O)cc1)C(=O)N[C@@H](CCCCNC(=O)CN1CCN(CC(=O)O)CCN(CC(=O)O)CCN(CC(=O)O)CC1)C(=O)N[C@@H](CC(N)=O)C(=O)N[C@H](C(=O)N[C@@H](Cc1ccccc1)C(=O)NNC(=O)N[C@@H](CC(C)C)C(=O)NC1(C(=O)N[C@@H](Cc2c[nH]c3ccccc23)C(N)=O)CCN(C(=O)CNCc2ccc(C)c(F)c2)CC1)[C@@H](C)O` [Compound 380] (Ac-[dY]K(DOTA)NTF[azaGly]L[Api](Gly(N-(3-F-4-Me-benzyl)))W-NH2), for which, under setting [1], the Ki is < 0.01 µM. Same read-out and setting: as for `Cc1ccc(CNCC(=O)N2CCC(NC(=O)c3ccc(-c4ccccc4)c(OCCNC(=O)[C@H](Cc4ccccc4)NC(=O)[C@@H](NC(=O)[C@H](CC(N)=O)NC(=O)[C@@H](Cc4c[nH]c5ccccc45)NC(=O)[C@@H](Cc4ccc(O)cc4)NC(=O)CCCCCNC(=O)CN4CCN(CC(=O)O)CCN(CC(=O)O)CCN(CC(=O)O)CC4)[C@@H](C)O)c3)(C(=O)N[C@@H](Cc3c[nH]c4ccccc34)C(N)=O)CC2)cc1F` [Compound 279] ({DOTA-Ahx}-[dY][dW]NTF[X11][Api](Gly(N-(3-F-4-Me-benzyl)))W-NH2), the figure is < 0.01 µM; as for `CC(C)C[C@H](NC(=O)NNC(=O)[C@H](Cc1ccccc1)NC(=O)[C@@H](NC(=O)[C@H](CC(N)=O)NC(=O)[C@@H](Cc1ccc2ccccc2c1)NC(=O)CCCCCNC(=O)CN1CCN(CC(=O)O)CCN(CC(=O)O)CCN(CC(=O)O)CC1)[C@@H](C)O)C(=O)NC1(C(=O)N[C@@H](Cc2ccccc2)C(N)=O)CCN(C(=N)N)CC1` [Compound 301] ({DOTA-Ahx}-[d2Nal]NTF[azaGly]L[Api(1-amidino)]F-NH2), < 0.01 µM. On to `Cc1ccc(CNCC(=O)N2CCC(NC(=O)[C@H](CC(C)C)NC(=O)NNC(=O)[C@H](CC3CCCCC3)NC(=O)[C@@H](NC(=O)[C@H](CC(N)=O)NC(=O)[C@@H](Cc3ccncc3)NC(=O)CCCCCNC(=O)CN3CCN(CC(=O)O)CCN(CC(=O)O)CCN(CC(=O)O)CC3)[C@@H](C)O)(C(=O)N[C@@H](Cc3c[nH]c4ccccc34)C(N)=O)CC2)cc1F` [Compound 314] ({DOTA-Ahx}-[d4Pal]NT[Cha][azaGly]L[Api](Gly(N-(3-F-4-Me-benzyl)))W-NH2), for which the inhibition constant (Ki) under setting [1] is < 0.01 µM. Take `Cc1ccc(CNCC(=O)N2CCC(NC(=O)[C@H](CC(C)C)NC(=O)NNC(=O)[C@H](Cc3ccccc3)NC(=O)[C@@H](NC(=O)[C@H](CC(N)=O)NC(=O)[C@H](Cc3ccc4ccccc4c3)NC(=O)[C@@H](Cc3ccc(O)cc3)NC(=O)CCCCCNC(=O)CN3CCN4CCN5CCN(CC3)CC(=O)[O][Lu]([O]C(=O)C4)[O]C(=O)C5)[C@@H](C)O)(C(=O)N[C@@H](Cc3c[nH]c4ccccc34)C(N)=O)CC2)cc1F` [Compound 118-Lu] ({DOTA(Lu)-Ahx}-[dY][2Nal]NTF[azaGly]L[Api](Gly(N-(3-F-4-Me-benzyl)))W-NH2): the inhibition constant (Ki) was < 0.01 µM.

As to `Cc1ccc(CNCC(=O)N2CCC(NC(=O)[C@H](CC(C)C)NC(=O)NNC(=O)[C@H](Cc3ccccc3)NC(=O)[C@@H](NC(=O)[C@H](CC(N)=O)NC(=O)[C@@H](Cc3c[nH]c4ccccc34)NC(=O)[C@@H](Cc3c[nH]cn3)NC(=O)[C@@H](Cc3ccc(O)cc3)NC(=O)CCCCCNC(=O)CN3CCN(CC(=O)O)CCN(CC(=O)O)CCN(CC(=O)O)CC3)[C@@H](C)O)(C(=O)N[C@@H](Cc3c[nH]c4ccccc34)C(N)=O)CC2)cc1F` [Compound 32] ({DOTA-Ahx}-[dY][dH][dW]NTF[azaGly]L[Api](Gly(N-(3-F-4-Me-benzyl)))W-NH2), the Ki under setting [1] was < 0.01 µM. Same read-out and setting: as for `Cc1ccc(CNCC(=O)N2CCC(NC(=O)[C@H](CC(C)C)NC(=O)NNC(=O)[C@H](Cc3ccccc3)NC(=O)[C@@H](CC(N)=O)NC(=O)CN3CCN(CC(=O)O)CCN(CC(=O)O)CCN(CC(=O)O)CC3)(C(=O)N[C@@H](Cc3c[nH]c4ccccc34)C(N)=O)CC2)cc1F` [Compound 21] ({DOTA}-[dN]F[azaGly]L[Api](Gly(N-(3-F-4-Me-benzyl)))W-NH2), the figure is 0.01 to 0.1 µM; as for `Cc1ccc(CNCC(=O)N2CCC(NC(=O)[C@H](CC(C)C)NC(=O)NNC(=O)[C@H](Cc3ccccc3)NC(=O)[C@@H](NC(=O)[C@H](CC(N)=O)NC(=O)[C@@H](Cc3c[nH]c4ccccc34)NC(=O)[C@@H](Cc3c[nH]cn3)NC(=O)[C@@H](Cc3ccc(O)cc3)NC(=O)CN3CCC(NC(=O)CN4CCN(CC(=O)O)CCN(CC(=O)O)CCN(CC(=O)O)CC4)CC3)[C@@H](C)O)(C(=O)N[C@@H](Cc3c[nH]c4ccccc34)C(N)=O)CC2)cc1F` [Compound 33] ({DOTA}-[X1][dY][dH][dW]NTF[azaGly]L[Api](Gly(N-(3-F-4-Me-benzyl)))W-NH2), < 0.01 µM; as for `Cc1ccc(CNCC(=O)N2CCC(NC(=O)[C@H](CC(C)C)NC(=O)NNC(=O)[C@H](Cc3ccccc3)NC(=O)[C@@H](NC(=O)[C@H](CC(N)=O)NC(=O)[C@@H](Cc3ccncc3)NC(=O)[C@@H](Cc3ccc(O)cc3)NC(=O)CN3CCN(CC(=O)O)CCN(CC(=O)O)CCN(CC(=O)O)CC3)[C@@H](C)O)(C(=O)N[C@@H](Cc3ccncc3)C(N)=O)CC2)cc1F` [Compound 281] ({DOTA}-[dY][d4Pal]NTF[azaGly]L[Api](Gly(N-(3-F-4-Me-benzyl)))[4Pal]-NH2), < 0.01 µM. `Cc1ccc(CNCC(=O)N2CCC(NC(=O)[C@H](CC(C)C)NC(=O)NNC(=O)[C@H](Cc3ccccc3)NC(=O)[C@@H](NC(=O)[C@H](CC(N)=O)NC(=O)[C@@H](Cc3c[nH]c4ccccc34)NC(=O)[C@@H](Cc3ccc(O)cc3)NC(=O)CCCCCNC(=O)[C@@H](CS(=O)(=O)O)NC(=O)[C@@H](CS(=O)(=O)O)NC(=O)[C@@H](CS(=O)(=O)O)NC(=O)CN3CCN(CC(=O)O)CCN(CC(=O)O)CCN(CC(=O)O)CC3)[C@@H](C)O)(C(=O)N[C@@H](Cc3c[nH]c4ccccc34)C(N)=O)CC2)cc1F` [Compound 114] ({DOTA}-[dCya][dCya][dCya][Ahx][dY][dW]NTF[azaGly]L[Api](Gly(N-(3-F-4-Me-benzyl)))W-NH2): under setting [1], the inhibition constant Ki is < 0.01 µM. Still for that read-out and setting: next, `Cc1ccc(CCCC(=O)N2CCC(NC(=O)[C@H](CC(C)C)NC(=O)NNC(=O)[C@H](Cc3ccccc3)NC(=O)CCCCCNC(=O)CN3CCN(CC(=O)O)CCN(CC(=O)O)CCN(CC(=O)O)CC3)(C(=O)N[C@@H](Cc3c[nH]c4ccccc34)C(N)=O)CC2)cc1` [Compound 7] ({DOTA-Ahx}-F[azaGly]L[Api](Butanoyl(4-(4-MePh)))W-NH2): 0.01 to 0.1 µM. `Cc1ccc(CNCC(=O)N2CCC(NC(=O)[C@H](CC(C)C)NC(=O)NNC(=O)[C@H](Cc3cccs3)NC(=O)[C@@H](NC(=O)[C@H](CC(N)=O)NC(=O)[C@H](CCC(=O)O)NC(=O)CN3CCC(NC(=O)CN4CCN(CC(=O)O)CCN(CC(=O)O)CCN(CC(=O)O)CC4)CC3)[C@@H](C)O)(C(=O)N[C@@H](Cc3c[nH]c4ccccc34)C(N)=O)CC2)cc1F` [Compound 218] ({DOTA}-[X1]ENT[2Thi][azaGly]L[Api](Gly(N-(3-F-4-Me-benzyl)))W-NH2): under setting [1], the Ki was < 0.01 µM. The same measure, in the same setting: next, `Cc1ccc(CNCC(=O)N2CCC(NC(=O)[C@H](CC(C)C)NC(=O)NNC(=O)[C@H](Cc3ccccc3)NC(=O)CCCCCNC(=O)[C@@H](CS(=O)(=O)O)NC(=O)[C@@H](CS(=O)(=O)O)NC(=O)[C@@H](CS(=O)(=O)O)NC(=O)CN3CCN(CC(=O)O)CCN(CC(=O)O)CCN(CC(=O)O)CC3)(C(=O)N[C@@H](Cc3c[nH]c4ccccc34)C(N)=O)CC2)cc1F` [Compound 131] ({DOTA}-[dCya][dCya][dCya][Ahx]F[azaGly]L[Api](Gly(N-(3-F-4-Me-benzyl)))W-NH2): < 0.01 µM. `Cc1ccc(CNCC(=O)N2CCC(NC(=O)[C@H](CC(C)C)NC(=O)NNC(=O)[C@H](Cc3ccccc3)NC(=O)[C@@H](NC(=O)[C@H](CC(N)=O)NC(=O)[C@@H](Cc3c[nH]c4ccccc34)NC(=O)[C@H](Cc3ccc(O)cc3)NC(=O)CNC(=O)CN3CCN(CC(=O)O)CCN(CC(=O)O)CCN(CC(=O)O)CC3)[C@@H](C)O)(C(=O)N[C@@H](Cc3c[nH]c4ccccc34)C(N)=O)CC2)cc1F` [Compound 151] ({DOTA}-GY[dW]NTF[azaGly]L[Api](Gly(N-(3-F-4-Me-benzyl)))W-NH2): the inhibition constant (Ki) under setting [1] is < 0.01 µM. On the same count and under the same terms, next, `Cc1ccc(CNCC(=O)N2CCC(NC(=O)[C@H](CC(C)C)NC(=O)NNC(=O)[C@H](Cc3ccccc3)NC(=O)[C@@H](NC(=O)[C@H](CC(N)=O)NC(=O)[C@H](Cc3ccc4ccccc4c3)NC(=O)[C@@H](Cc3ccc(O)cc3)NC(=O)CCCCCNC(=O)CN3CCN(CC(=O)O)CCN(CC(=O)O)CCN(CC(=O)O)CC3)[C@@H](C)O)(C(=O)N[C@@H](Cc3c[nH]c4ccccc34)C(N)=O)CC2)cc1F` [Compound 118] ({DOTA-Ahx}-[dY][2Nal]NTF[azaGly]L[Api](Gly(N-(3-F-4-Me-benzyl)))W-NH2): < 0.01 µM; `Cc1ccc(CCC(=O)NCCOCCOCCC(=O)N[C@H](Cc2ccc(O)cc2)C(=O)N[C@@H](CCCCNC(=O)CN2CCN(CC(=O)O)CCN(CC(=O)O)CCN(CC(=O)O)CC2)C(=O)N[C@@H](CC(N)=O)C(=O)N[C@H](C(=O)N[C@@H](CC2CCCCC2)C(=O)NNC(=O)N[C@@H](CC(C)C)C(=O)NC2(C(=O)N[C@@H](Cc3c[nH]c4ccccc34)C(N)=O)CCN(C(=N)N)CC2)[C@@H](C)O)cc1` [Compound 326] ({Hydrocinnamoyl(4-Me)-PEG2}-[dY]K(DOTA)NT[Cha][azaGly]L[Api(1-amidino)]W-NH2): < 0.01 µM.
